The results in this text go back to US12291529B2, “Heterocyclic GLP-1 agonists” (Gasherbrum Bio, Inc., priority 2023, dated 2025).

By EC50 is commonly meant the concentration that produces a half-maximal response.

Molecules are shown by their SMILES.

The target of this experiment is GLP-1 Receptor (Homo sapiens, UniProt P43220). Briefly: GLP-1R agonist cAMP stimulation assay (HEK293/GLP1R/CRE-LUC cells, Cisbio cAMP dynamic 2 kit). Format: cell-based. As to conditions: Table 3, HEK293/GLP1R/CRE-LUC cells, 30 min. The procedure, abridged: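 cAMP was measured by HTRF (d2/cryptate, 1 h RT, 665 and 615 nm). Beforehand, compounds in half-log series were incubated 30 min at 37 °C with GLP-1R/CRE-Luc HEK293 cells (1000 per well) in IBMX (0.5 mM)-containing DPBS/BSA. Activity scaled between vehicle and maximal control.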
Chain of GLP-1 Receptor (P43220 24-463, species assumed): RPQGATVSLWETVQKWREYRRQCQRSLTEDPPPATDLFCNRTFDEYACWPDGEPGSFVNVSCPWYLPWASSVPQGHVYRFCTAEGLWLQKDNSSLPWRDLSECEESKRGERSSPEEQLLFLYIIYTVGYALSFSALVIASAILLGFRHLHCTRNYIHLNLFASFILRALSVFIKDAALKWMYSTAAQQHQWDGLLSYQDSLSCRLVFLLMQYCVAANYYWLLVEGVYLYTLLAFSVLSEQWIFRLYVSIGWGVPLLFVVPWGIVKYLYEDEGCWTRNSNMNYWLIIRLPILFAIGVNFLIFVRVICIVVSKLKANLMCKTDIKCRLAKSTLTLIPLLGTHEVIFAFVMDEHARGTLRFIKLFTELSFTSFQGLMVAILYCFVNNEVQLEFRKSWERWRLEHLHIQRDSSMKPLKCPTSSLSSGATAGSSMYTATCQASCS
As for `Cc1cc(-n2nc3c(c2-n2ccn(-c4ccc5c(c4)CCS5(=N)=O)c2=O)[C@H](C)N(C(=O)c2cc4cc(C5CCOCC5)ccc4n2[C@@]2(c4noc(=O)[nH]4)C[C@@H]2C)CC3)cc(C)c1F` (stereo partly drawn) [Compound 101, 3-[(1S,2S)-1-(2-{[(4S)-3-[3-(1-azanylidene-l-oxo-2,3-dihydro-1λ^6-benzo[b]thiophen-5-yl)-2-oxoimidazol-1-yl]-2-(4-fluoro-3,5-dimethylphenyl)-4-methyl-4,5,6,7-tetrahydropyrazolo[4,3-c]pyridin-5-yl]carbonyl}-5-(3,4,5,6-tetrahydro-2H-pyran-4-yl)indol-1-yl)-2-methylcyclopropyl]-4H,5H-1,2,4-oxadiazol-5-one], the concentration for a half-maximal effect (EC50) amounted to 0.067 nM.

For `Cc1cc(-n2nc3c(c2-n2ccn(-c4ccc(S(C)(=N)=O)nc4)c2=O)[C@H](C)N(C(=O)c2cc4cc(C5CCOCC5)ccc4n2[C@@]2(c4noc(=O)[nH]4)C[C@@H]2C)CC3)cc(C)c1F` (stereo partly drawn) [Compound 102, 3-[(1S,2S)-1-(2-{[(4S)-3-(3-{6-[azanylidene(methyl)(oxo)-λ^6-sulfanyl]pyridin-3-yl}-2-oxoimidazol-1-yl)-2-(4-fluoro-3,5-dimethylphenyl)-4-methyl-4,5,6,7-tetrahydropyrazolo[4,3-c]pyridin-5-yl]carbonyl}-5-(3,4,5,6-tetrahydro-2H-pyran-4-yl)indol-1-yl)-2-methylcyclopropyl]-4H,5H-1,2,4-oxadiazol-5-one], the 50% effective concentration (EC50) was 0.17 nM.

Compound `Cc1cc(-n2nc3c(c2N2CCN(c4ccc(S(C)(=N)=O)cc4)C2=O)[C@H](C)N(C(=O)c2cc4cc(C5CCOCC5)ccc4n2[C@@]2(c4noc(=O)[nH]4)C[C@@H]2C)CC3)cc(C)c1F` (stereo partly drawn) [Compound 103, 3-[(1S,2S)-1-(2-{[(4S)-3-(3-{4-[azanylidene(methyl)(oxo)-λ^6-sulfanyl]phenyl}-2-oxotetrahydro-1H-imidazol-1-yl)-2-(4-fluoro-3,5-dimethylphenyl)-4-methyl-4,5,6,7-tetrahydropyrazolo[4,3-c]pyridin-5-yl]carbonyl}-5-(3,4,5,6-tetrahydro-2H-pyran-4-yl)indol-1-yl)-2-methylcyclopropyl]-4H,5H-1,2,4-oxadiazol-5-one] had an EC50 of 0.14 nM.

The compound `CNc1cc(-n2ccn(-c3c4c(nn3-c3cc(C)c(F)c(C)c3)CCN(C(=O)c3cc5cc(C6CCOCC6)ccc5n3[C@@]3(c5nc(=O)o[nH]5)C[C@@H]3C)[C@H]4C)c2=O)ccc1S(C)(=N)=O` (stereo partly drawn) [Compound 105, 3-[(1S,2S)-1-(2-{[(S)-2-(4-fluoro-3,5-xylyl)-3-{3-[4-(iminomethyloxothio)-3-(methylamino)phenyl]-2-oxo-1,3-dihydro-1-imidazolyl}-4-methyl-4,5,6,7-tetrahydro-2H-1,2,5-triazainden-5-yl]carbonyl}-5-(tetrahydro-2H-pyran-4-yl)-1-indolyl)-2-methylcyclopropyl]-1,2,4-oxadiazol-5(4H)-one] returned a half-maximal effective concentration (EC50) of 0.009 nM.

The compound `Cc1cc(-n2nc3c(c2-n2ccn(-c4ccc(S(C)(=N)=O)cc4)c2=O)[C@H](C)N(C(=O)c2cc4cc(N5CCOCC5)ccc4n2C2(c4noc(=O)[nH]4)CC2)CC3)cc(C)c1F` (stereo partly shown) [Compound 106] returned an EC50 of 0.67 nM.

As for `Cc1cc(-n2nc3c(c2-n2ccn(-c4ccc(S(C)(=N)=O)cc4)c2=O)[C@H](C)N(C(=O)c2cc4cc(C5CCOCC5)ccn4c2C2(c4noc(=O)[nH]4)CC2)CC3)cc(C)c1F` (stereo partly shown) [Compound 107], the half-maximal effective concentration (EC50) was 0.46 nM.

With `Cc1cc(-n2nc3c(c2-n2ccn(-c4ccc5c(c4)CCN=S5(C)=O)c2=O)[C@H](C)N(C(=O)c2cc4cc(C5CCOCC5)ccc4n2[C@@]2(c4noc(=O)[nH]4)C[C@@H]2C)CC3)cc(C)c1F` (stereo partly drawn) [Compound 108, 6-{3-[(4S)-2-(4-fluoro-3,5-dimethylphenyl)-5-({1-[(1S,2S)-2-methyl-1-(5-oxo-4H-1,2,4-oxadiazol-3-yl)cyclopropyl]-5-(3,4,5,6-tetrahydro-2H-pyran-4-yl)indol-2-yl}carbonyl)-4-methyl-4,5,6,7-tetrahydropyrazolo[4,3-c]pyridin-3-yl]-2-oxoimidazol-1-yl}-1-methyl-3,4-dihydro-1λ^6-benzo[2,1-e][1,2]thiazin-1-one], the midpoint of the response, the EC50, lay at 0.013 nM.

As to `Cc1cc(-n2nc3c(c2-n2ccn(-c4ccc(S(C)(=N)=O)cc4)c2=O)[C@H](C)N(C(=O)c2cn4cc(C5CCOCC5)ccc4c2C2(c4noc(=O)[nH]4)CC2)CC3)cc(C)c1F` (stereo partly shown) [Compound 109], the concentration giving a half-maximal response (EC50) is 0.27 nM.

The compound `Cc1cc(-n2nc3c(c2-n2ccn(-c4ccc(S(C)(=N)=O)cc4)c2=O)[C@H](C)N(C(=O)c2cc4cc(C5CCOCC5)ccc4n2[C@@]2(c4noc(=O)[nH]4)C[C@@H]2C)CC3)cc(C)c1F` (stereo partly shown) [Compound 110] showed an EC50 of 0.028 nM.

Consider `Cc1cc(-n2nc3c(c2-n2ccn(-c4ccc(CS(C)(=N)=O)cc4)c2=O)[C@H](C)N(C(=O)c2cc4cc(C5CCOCC5)ccc4n2[C@@]2(c4noc(=O)[nH]4)C[C@@H]2C)CC3)cc(C)c1F` (stereo partly drawn) [Compound 111, 3-[(1S,2S)-1-(2-{[(4S)-3-[3-(4-{[azanylidene(methyl)(oxo)-λ^6-sulfanyl]methyl}phenyl)-2-oxoimidazol-1-yl]-2-(4-fluoro-3,5-dimethylphenyl)-4-methyl-4,5,6,7-tetrahydropyrazolo[4,3-c]pyridin-5-yl]carbonyl}-5-(3,4,5,6-tetrahydro-2H-pyran-4-yl)indol-1-yl)-2-methylcyclopropyl]-4H,5H-1,2,4-oxadiazol-5-one], for which the half-maximal effective concentration (EC50) was 0.014 nM.

Turning to `C[C@H]1c2c(nn(-c3ccc(F)c(C4CC4)c3)c2-n2ccn(-c3ccc(S(C)(=N)=O)cc3)c2=O)CCN1C(=O)c1cc2cc(C3CCOCC3)ccc2n1[C@@]1(c2noc(=O)[nH]2)C[C@@H]1C` (stereo partly shown) [Compound 118], the EC50 came out at 0.04 nM.

`Cc1cc(-n2nc3c(c2-n2ccn(-c4ccc(S(C)(=N)=O)cc4)c2=O)[C@H](C)N(C(=O)c2cc4cc(C5CCOCC5)ccc4n2-c2cccc(S(=O)(=O)Nc4ncccn4)c2)CC3)cc(C)c1F` (stereo partly shown) [Compound 119]: it took 1 nM to reach a half-maximal effect (EC50).

Turning to `COc1cc(-n2ccn(-c3c4c(nn3-c3cc(C)c(F)c(C)c3)CCN(C(=O)c3cc5cc(C6CCOCC6)ccc5n3[C@@]3(c5noc(=O)[nH]5)C[C@@H]3C)[C@H]4C)c2=O)ccc1S(C)(=N)=O` (stereo partly drawn) [Compound 123, 3-[(1S,2S)-1-(2-{[(S)-2-(4-fluoro-3,5-xylyl)-3-{3-[4-(iminomethyloxothio)-3-methoxyphenyl]-2-oxo-1,3-dihydro-1-imidazolyl}-4-methyl-4,5,6,7-tetrahydro-2H-1,2,5-triazainden-5-yl]carbonyl}-5-(tetrahydro-2H-pyran-4-yl)-1-indolyl)-2-methylcyclopropyl]-1,2,4-oxadiazol-5(4H)-one], the EC50 turned out to be 0.071 nM. This EC50 is about 14-fold lower than that of the compound before.

Compound `Cc1cc(-n2ccn(-c3c4c(nn3-c3cc(C)c(F)c(C)c3)CCN(C(=O)c3cc5cc(C6CCOCC6)ccc5n3[C@@]3(c5noc(=O)[nH]5)C[C@@H]3C)[C@H]4C)c2=O)ccc1S(C)(=N)=O` (stereo partly shown) [Compound 124] came in with a 50% effective concentration (EC50) of 0.01 nM.

`CCS(=O)(=NC)c1ccc(-n2ccn(-c3c4c(nn3-c3cc(C)c(F)c(C)c3)CCN(C(=O)c3cc5cc(C6CCOCC6)ccc5n3CC3CCCO3)[C@H]4C)c2=O)cc1` (stereo partly shown) [Compound 163] yielded an EC50 of 20 nM.

Turning to `Cc1cc(-n2nc3c(c2-n2ccn(-c4ccc5c(c4)CS(C)(=O)=N5)c2=O)[C@H](C)N(C(=O)c2cc4cc(C5CCOCC5)ccc4n2[C@@]2(c4noc(=O)[nH]4)C[C@@H]2C)CC3)cc(C)c1F` (stereo partly shown) [Compound 225], the EC50 was 0.028 nM.

Consider `Cc1cc(-n2nc3c(c2-n2ccn(-c4ccc(OC5CCS(=N)(=O)CC5)cc4)c2=O)[C@H](C)N(C(=O)c2cc4cc(C5CCOCC5)ccc4n2[C@@]2(c4noc(=O)[nH]4)C[C@@H]2C)CC3)cc(C)c1F` (stereo partly drawn) [Compound 226, 3-((1S,2S)-1-(2-((S)-2-(4-fluoro-3,5-dimethylphenyl)-3-(3-(4-((1-imino-1-oxidohexahydro-1λ^6-thiopyran-4-yl)oxy)phenyl)-2-oxo-2,3-dihydro-1H-imidazol-1-yl)-4-methyl-4,5,6,7-tetrahydro-2H-pyrazolo[4,3-c]pyridine-5-carbonyl)-5-(tetrahydro-2H-pyran-4-yl)-1H-indol-1-yl)-2-methylcyclopropyl)-1,2,4-oxadiazol-5(4H)-one], for which the concentration for a half-maximal effect (EC50) was 0.025 nM.

`Cc1cc(-n2nc3c(c2-n2ccn(-c4ccc5c(c4)CS(C)(=O)=N5)c2=O)[C@H](C)N(C(=O)c2cc4cc([C@H]5CCOC(C)(C)C5)ccc4n2[C@@]2(c4noc(=O)[nH]4)C[C@@H]2C)CC3)cc(C)c1F` (stereo partly drawn) [Compound 227, 5-{3-[(4S)-2-(4-fluoro-3,5-dimethylphenyl)-5-({5-[(4S)-2,2-dimethyl-3,4,5,6-tetrahydro-2H-pyran-4-yl]-1-[(1S,2S)-2-methyl-1-(5-oxo-4H-1,2,4-oxadiazol-3-yl)cyclopropyl]indol-2-yl}carbonyl)-4-methyl-4,5,6,7-tetrahydropyrazolo[4,3-c]pyridin-3-yl]-2-oxoimidazol-1-yl}-2-methyl-3H-2λ^6-benzo[c][1,2]thiazol-2-one] displayed an EC50 of 0.015 nM.

Regarding `CN=S1(=O)CCC(Oc2ccc(-n3ccn(-c4c5c(nn4-c4cc(C)c(F)c(C)c4)CCN(C(=O)c4cc6cc([C@H]7CCOC(C)(C)C7)ccc6n4[C@@]4(c6noc(=O)[nH]6)C[C@@H]4C)[C@H]5C)c3=O)cc2C2CC2)CC1` (stereo partly shown) [Compound 237], the EC50 was 0.07 nM.
